Reference: PubChem BioAssay (NCI)
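Test compounds were applied to cells in 96-well plates for 48 hours at 5 doses. GI50 is the concentration that inhibits growth by half. Definition used: TGI = concentration required for complete inhibition of growth.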

How the values were obtained:
Assay in all cases: NCI-60 cell line screen, 48 h
[1] = tested on: NCI-H23 lung
[2] = tested on: HOP-62 NSCLC
[3] = tested on: OVCAR-5 ovarian
[4] = tested on: NCI/ADR-RES ovarian
[5] = tested on: PC-3 prostate
[6] = tested on: TK-10 renal
[7] = tested on: LOX IMVI melanoma
[8] = tested on: U251 CNS
[9] = tested on: HCC-2998 colon
[10] = tested on: OVCAR-8 ovarian
[11] = tested on: SF-539 CNS
[12] = tested on: SF-268 CNS
[13] = tested on: UACC-62 melanoma
[14] = tested on: OVCAR-3 ovarian
[15] = tested on: KM12 colon
[16] = tested on: MALME-3M melanoma
[17] = tested on: NCI-H460 lung
[18] = tested on: SR leukemia
[19] = tested on: RPMI-8226 leukemia
[20] = tested on: HCT-116 colon
[21] = tested on: NCI-H522 lung
[22] = tested on: SF-295 CNS
[23] = tested on: SNB-75 CNS
[24] = tested on: SK-MEL-28 melanoma
[25] = tested on: MCF7 breast
[26] = tested on: COLO 205 colon
[27] = tested on: OVCAR-4 ovarian
[28] = tested on: K-562 leukemia
[29] = tested on: MDA-MB-231 breast
[30] = tested on: SW-620 colon
[31] = tested on: BT-549 breast
[32] = tested on: MDA-MB-435
[33] = tested on: HS 578T breast
[34] = tested on: EKVX NSCLC
[35] = tested on: HOP-92 NSCLC
[36] = tested on: UACC-257 melanoma
[37] = tested on: SNB-19 CNS
[38] = tested on: DU-145 prostate
[39] = tested on: SK-MEL-5 melanoma
[40] = tested on: MOLT-4 leukemia
[41] = tested on: IGROV1 ovarian
[42] = tested on: A549 NSCLC
[43] = tested on: ACHN renal
[44] = tested on: A498 renal
[45] = tested on: HL-60(TB) leukemia
[46] = tested on: HCT-15 colon
[47] = tested on: M14 melanoma
[48] = tested on: T-47D breast
[49] = tested on: UO-31 renal
[50] = tested on: CAKI-1 renal
[51] = tested on: HT29 colon
[52] = tested on: CCRF-CEM leukemia
[53] = tested on: 786-0 renal
[54] = tested on: RXF 393 renal
[55] = tested on: NCI-H226 lung
[56] = tested on: SN12C renal
[57] = tested on: SK-OV-3 ovarian
[58] = tested on: SK-MEL-2 melanoma

CC(C)=CCC[C@H](C)[C@@H]1CC[C@]2(C)C3CC[C@]4(OC4(C)C)C(CCCO)[C@]3(C)CC[C@@]12C (stereo not given in full)
GI50 [1]: 18.7 µM
TGI [1]: 40.2 µM
GI50 [2]: 20.8 µM
TGI [2]: 44.4 µM
GI50 [3]: 21 µM
TGI [3]: 47.1 µM
GI50 [4]: 23.5 µM
TGI [4]: 59.2 µM
GI50 [5]: 18.2 µM
TGI [5]: 41.1 µM
GI50 [6]: 17.5 µM
TGI [6]: 38.2 µM
GI50 [7]: 0.18 µM
TGI [7]: 16.5 µM
GI50 [8]: 19.7 µM
TGI [8]: 66.1 µM
GI50 [9]: 7.75 µM
TGI [9]: 22.5 µM
GI50 [10]: 37.7 µM
TGI [10]: > 100 µM
GI50 [11]: 23.6 µM
TGI [11]: 50.1 µM
GI50 [12]: 17.8 µM
TGI [12]: 36 µM
GI50 [13]: 13.6 µM
TGI [13]: 30.4 µM
GI50 [14]: 26.7 µM
TGI [14]: 52.8 µM
GI50 [15]: 22.5 µM
TGI [15]: 59.5 µM
GI50 [16]: 27.3 µM
TGI [16]: 54.6 µM
GI50 [17]: 23.7 µM
TGI [17]: 70.3 µM
GI50 [18]: 11.2 µM
TGI [18]: 28.1 µM
GI50 [19]: 33.6 µM
TGI [19]: > 100 µM
GI50 [20]: 29 µM
TGI [20]: > 100 µM
GI50 [21]: 32.4 µM
TGI [21]: > 100 µM
GI50 [22]: 27.9 µM
TGI [22]: 63.3 µM
GI50 [23]: 29.8 µM
TGI [23]: 58 µM
GI50 [24]: 23.9 µM
TGI [24]: 58.5 µM
GI50 [25]: 18.1 µM
TGI [25]: 43.6 µM
GI50 [26]: 31.5 µM
TGI [26]: > 100 µM
GI50 [27]: 25.3 µM
TGI [27]: 59 µM
GI50 [28]: 25.3 µM
TGI [28]: 73.3 µM
GI50 [29]: 20.5 µM
TGI [29]: 43.3 µM
GI50 [30]: 28 µM
TGI [30]: 64.8 µM
GI50 [31]: 26 µM
TGI [31]: 51.7 µM
GI50 [32]: 22.6 µM
TGI [32]: 48.8 µM
GI50 [33]: 24.4 µM
TGI [33]: 58.5 µM
GI50 [34]: 20.7 µM
TGI [34]: 50.7 µM
GI50 [35]: 14.5 µM
TGI [35]: 34.7 µM
GI50 [36]: 24.1 µM
TGI [36]: 59.9 µM
GI50 [37]: 24 µM
TGI [37]: 62.3 µM
GI50 [38]: 32.9 µM
TGI [38]: > 100 µM
GI50 [39]: 22.7 µM
TGI [39]: 42.9 µM
GI50 [40]: 18.2 µM
TGI [40]: 44.6 µM
GI50 [41]: 81.7 µM
TGI [41]: > 100 µM
GI50 [42]: 37.7 µM
TGI [42]: > 100 µM
GI50 [43]: 13.7 µM
TGI [43]: 32.4 µM
GI50 [44]: 20.1 µM
TGI [44]: 37.2 µM
GI50 [45]: 20.7 µM
TGI [45]: 45.3 µM
GI50 [46]: 26.5 µM
TGI [46]: > 100 µM
GI50 [47]: 32.1 µM
TGI [47]: > 100 µM
GI50 [48]: 17.4 µM
TGI [48]: 45.6 µM
GI50 [49]: 33.5 µM
TGI [49]: > 100 µM
GI50 [50]: 21.7 µM
TGI [50]: 44.4 µM
GI50 [51]: 34 µM
TGI [51]: > 100 µM
GI50 [52]: 25.2 µM
TGI [52]: 65.9 µM
GI50 [53]: 22.4 µM
TGI [53]: 48.5 µM
GI50 [54]: 18.3 µM
TGI [54]: 37.6 µM
GI50 [55]: 10 µM
TGI [55]: 57.4 µM

COc1ccc(N(CC(=O)NCCC[Te]c2ccccc2)C(=O)c2ccccc2)cc1
GI50 [1]: 3.17 µM
TGI [1]: 9.36 µM
GI50 [2]: 2.41 µM
TGI [2]: 5.32 µM
GI50 [3]: 3.8 µM
TGI [3]: 11.4 µM
GI50 [4]: 3.23 µM
TGI [4]: 10.8 µM
GI50 [5]: 2.68 µM
TGI [5]: 12.6 µM
GI50 [6]: 3.85 µM
TGI [6]: 11.4 µM
GI50 [7]: 3.69 µM
TGI [7]: 14.3 µM
GI50 [8]: 2.82 µM
TGI [8]: 9.4 µM
GI50 [56]: 2.7 µM
TGI [56]: 8.51 µM
GI50 [9]: 3.03 µM
TGI [9]: 8.21 µM
GI50 [10]: 3.03 µM
TGI [10]: 8.12 µM
GI50 [11]: 2.3 µM
TGI [11]: 6 µM
GI50 [12]: 3.19 µM
TGI [12]: 10.8 µM
GI50 [13]: 2.53 µM
TGI [13]: 7.5 µM
GI50 [14]: 5.75 µM
TGI [14]: 19.8 µM
GI50 [15]: 3.13 µM
TGI [15]: 11.9 µM
GI50 [16]: 16.7 µM
TGI [16]: 34.7 µM
GI50 [17]: 0.543 µM
TGI [17]: 2.37 µM
GI50 [18]: 2.82 µM
GI50 [19]: 3.18 µM
TGI [19]: 19.2 µM
GI50 [20]: 2.55 µM
TGI [20]: 10.2 µM
GI50 [57]: 2.55 µM
TGI [57]: 6 µM
GI50 [21]: 3.1 µM
TGI [21]: 8.84 µM
GI50 [22]: 1.68 µM
TGI [22]: 8.17 µM
GI50 [23]: 2.58 µM
TGI [23]: 9.64 µM
GI50 [24]: 4.33 µM
TGI [24]: 15.6 µM
GI50 [25]: 3.17 µM
TGI [25]: 10.8 µM
GI50 [26]: 2.58 µM
TGI [26]: 6.03 µM
GI50 [27]: 11.9 µM
TGI [27]: 25.2 µM
GI50 [28]: 5.17 µM
TGI [28]: > 100 µM
GI50 [29]: 2.08 µM
TGI [29]: 4.76 µM
GI50 [30]: 3.87 µM
TGI [30]: 14.4 µM
GI50 [31]: 2.39 µM
TGI [31]: 8.68 µM
GI50 [32]: 8.06 µM
TGI [32]: 30.2 µM
GI50 [33]: 2.97 µM
TGI [33]: 8.41 µM
GI50 [34]: 0.407 µM
TGI [34]: 5.27 µM
GI50 [35]: 4.1 µM
GI50 [37]: 4.06 µM
TGI [37]: 59 µM
GI50 [38]: 3.9 µM
TGI [38]: 13.9 µM
GI50 [39]: 2.4 µM
TGI [39]: 6.08 µM
GI50 [40]: 3.51 µM
TGI [40]: 17.5 µM
GI50 [41]: 2.88 µM
TGI [41]: 8.27 µM
GI50 [42]: 0.382 µM
TGI [42]: 2.14 µM
GI50 [43]: 3.17 µM
TGI [43]: 9.6 µM
GI50 [44]: 2.17 µM
TGI [44]: 5.35 µM
GI50 [45]: 2.12 µM
TGI [45]: 5.73 µM
GI50 [58]: 4.19 µM
TGI [58]: 15.3 µM
GI50 [46]: 2.95 µM
TGI [46]: 15 µM
GI50 [47]: 4.21 µM
TGI [47]: 15.4 µM
GI50 [48]: 3.4 µM
TGI [48]: 21.6 µM
GI50 [49]: 2.77 µM
TGI [49]: 10.9 µM
GI50 [50]: 2.98 µM
TGI [50]: 14.9 µM
GI50 [51]: 3.84 µM
TGI [51]: > 100 µM
GI50 [53]: 5.09 µM
TGI [53]: 19.6 µM
GI50 [54]: 12 µM
TGI [54]: 30.3 µM
GI50 [55]: 2.62 µM
TGI [55]: 7.21 µM
